The text below walks through data of publication PMC6010111, “Synthesis, biological evaluation and molecular modeling studies on novel quinonoid inhibitors of CDC25 phosphatases” (Journal of Enzyme Inhibition and Medicinal Chemistry, 2016).

Broadly, the IC50 is the midpoint of a concentration-inhibition curve.

Assay type in all cases: biochemical
For assay [1], the target named is T1, human CDC25C (recombinant GST-CDC25) (Homo sapiens, UniProt P30307).
T1 construct: made in house; host or cells: Escherichia coli BL21-DE3 pLys S
T1 sequence (P30307 1-473): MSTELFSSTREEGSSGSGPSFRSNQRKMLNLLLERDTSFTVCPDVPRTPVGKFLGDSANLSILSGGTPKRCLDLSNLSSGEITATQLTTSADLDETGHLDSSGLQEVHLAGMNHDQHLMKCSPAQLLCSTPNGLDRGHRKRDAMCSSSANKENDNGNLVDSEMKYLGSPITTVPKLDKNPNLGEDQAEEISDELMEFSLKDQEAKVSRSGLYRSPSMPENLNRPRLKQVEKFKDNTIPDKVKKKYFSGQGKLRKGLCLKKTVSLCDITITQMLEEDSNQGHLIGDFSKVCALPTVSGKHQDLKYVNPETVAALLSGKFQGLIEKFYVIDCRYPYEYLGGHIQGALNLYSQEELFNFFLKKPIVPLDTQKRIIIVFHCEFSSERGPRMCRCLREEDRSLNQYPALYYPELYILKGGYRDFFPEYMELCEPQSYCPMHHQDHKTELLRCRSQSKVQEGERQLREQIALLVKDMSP
Briefly: CDC25C dephosphorylation assay with 3-O-methylfluorescein phosphate (fluorimetric). To be noted: for remaining activity at 100 µM: 100 µM compound, DMSO control = 100%, read-out: residual activity of CDC25C; for IC50: mean of triplicates ± SD. The source says: (§1) Human glutathione-S-transferase (GST)-Cdc25 recombinant enzymes were used to evaluate the inhibitory potential of compounds.
(§2) Recombinant human GST-CDC25 proteins were produced as previously described by Brault et al.[25] Briefly, the GST-tagged Cdc25s were expressed in the bacterial expression system Escherichia coli BL21-DE3 pLys S, transformed by a plasmidic vector (pGEX 2T) containing the sequences encoding full length CDC25. Production of recombinant proteins was induced via an IPTG induction system. Then, cells were lysed and centrifuged to recover the supernatant which was purified with a GSH-agarose column system, and recombinant GST-CDC25 proteins were eluted and collected in fractions. Activity, purity and protein concentration of the fractions were evaluated.
(§3) CDC25 enzymatic activity was measured by a dephosphorylation assay with 3-O methyl fluorescein phosphate as described. Briefly, the assay was performed in 96-well plates in buffer [50 mM Tris–HCl, 50 mM NaCl, 1 mM EDTA and 0.1% SAB, pH 8.1], 3-O-methylfluorescein phosphate was used as substrate. After 2 h at 30 °C, 3-O-methylfluorescein fluorescent emission was measured with a CytoFluor system (Perspective Applied Biosystems, Villebon-sur-Yvette, France; excitation filter: 475 nm; emission filter: 510 nm).
(§4) Assays were performed in triplicate, and the experiment was independently performed three times. The results are expressed as percentage of inhibition of CDC25 phosphatase activity in presence of the tested compounds (and compared to DMSO control). All compounds were tested at a 100 µM concentration. Naphtoquinone (20 µM) was used as positive reference inhibitor.
(§5) IC50 values for CDC25 inhibition were evaluated by in vitro fluorimetric assays and were determined with sigmoid curves plotted by using a non-linear approximation model based on the least square method (GraphPad Prism software, La Jolla, CA).

Assay [2] has as its target T2, human CDC25A (recombinant GST-CDC25) (Homo sapiens, UniProt P30304).
T2 construct: made in house; host or cells: Escherichia coli BL21-DE3 pLys S
T2 sequence (P30304 1-524): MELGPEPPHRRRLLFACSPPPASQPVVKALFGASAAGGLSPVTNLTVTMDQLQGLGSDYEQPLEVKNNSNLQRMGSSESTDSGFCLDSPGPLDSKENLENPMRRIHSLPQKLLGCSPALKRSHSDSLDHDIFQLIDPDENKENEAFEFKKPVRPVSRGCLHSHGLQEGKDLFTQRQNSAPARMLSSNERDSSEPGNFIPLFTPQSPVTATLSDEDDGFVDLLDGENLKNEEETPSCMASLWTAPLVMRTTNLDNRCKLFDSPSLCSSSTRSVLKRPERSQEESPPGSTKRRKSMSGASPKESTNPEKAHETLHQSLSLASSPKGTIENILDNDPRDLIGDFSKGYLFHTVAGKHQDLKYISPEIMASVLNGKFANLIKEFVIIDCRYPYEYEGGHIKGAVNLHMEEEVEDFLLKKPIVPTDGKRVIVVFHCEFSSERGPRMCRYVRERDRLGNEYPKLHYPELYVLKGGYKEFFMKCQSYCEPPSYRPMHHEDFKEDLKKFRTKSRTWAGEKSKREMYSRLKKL
Briefly: CDC25A dephosphorylation assay with 3-O-methylfluorescein phosphate (fluorimetric). To be noted: for remaining activity at 100 µM: 100 µM compound, DMSO control = 100%, read-out: residual activity of CDC25A; for IC50: mean of triplicates ± SD.
Text: as §1, §2, §3, §4, §5

In assay [3] the target is T3, human CDC25B (recombinant GST-CDC25) (Homo sapiens, UniProt P30305).
T3 construct: made in house; host or cells: Escherichia coli BL21-DE3 pLys S
T3 sequence (P30305 1-580): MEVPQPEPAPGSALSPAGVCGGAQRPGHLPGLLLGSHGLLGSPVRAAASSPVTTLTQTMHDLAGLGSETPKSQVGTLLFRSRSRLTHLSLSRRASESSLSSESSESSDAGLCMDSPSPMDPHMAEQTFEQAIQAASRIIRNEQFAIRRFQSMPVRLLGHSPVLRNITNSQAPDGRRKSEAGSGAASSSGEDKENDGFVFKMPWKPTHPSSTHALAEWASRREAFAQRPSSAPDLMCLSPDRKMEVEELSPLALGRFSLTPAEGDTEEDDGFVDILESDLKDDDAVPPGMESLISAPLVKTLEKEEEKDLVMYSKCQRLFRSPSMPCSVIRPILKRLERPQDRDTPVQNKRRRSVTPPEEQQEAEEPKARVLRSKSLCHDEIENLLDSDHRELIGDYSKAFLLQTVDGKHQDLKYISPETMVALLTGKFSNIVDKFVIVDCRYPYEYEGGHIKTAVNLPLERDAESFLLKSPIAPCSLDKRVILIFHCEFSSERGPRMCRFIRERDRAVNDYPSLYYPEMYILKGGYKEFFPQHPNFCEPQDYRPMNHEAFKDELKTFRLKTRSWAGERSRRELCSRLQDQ
Briefly: CDC25B dephosphorylation assay with 3-O-methylfluorescein phosphate (fluorimetric). The note with it: for remaining activity at 100 µM: 100 µM compound, DMSO control = 100%, read-out: residual activity of CDC25B; for IC50 / IC50 CDC25B: mean of triplicates ± SD.
Text: as §1, §2, §3, §4, §5

Each structure is given as a SMILES string.

With `COCC1=CC(=O)C(C)=C([S@@+]([O-])c2ccc(C)cc2)C1=O` [Compound 2], the remaining activity at 100 µM in assay [1], in assay [2] and in assay [3] was greater than 10% each time.

As for `COC1=CC(=O)[C@]2(C)CC=C3CO[C@@H](c4ccccc4)CC3[C@]2([S@@+]([O-])c2ccc(C)cc2)C1=O` (stereo partly drawn) [Compound 5], the results for the 50% inhibitory concentration (IC50) in assay [1], in assay [2] and in assay [3] were 5.76 ± 0.42 µM, 2.53 ± 0.23 µM and 7.46 ± 2.17 µM, respectively.

For `COC1=CC(=O)[C@]2(C)CC=C3CO[C@@H](c4ccoc4)CC3[C@]2([S@@+]([O-])c2ccc(C)cc2)C1=O` (stereo partly drawn) [Compound 4], the IC50 was 9.43 ± 1.25 µM in assay [1], 3.73 ± 1.53 µM in assay [2] and 18.2 ± 1.68 µM in assay [3]. The “IC50 CDC25B” value in assay [3] was “double digit micromolar”.

`COC1=CC(=O)[C@]2(C)CC=C3CO[C@@H](c4ccccc4)CC3C2C1=O` (stereo partly drawn) [Compound 6]: the remaining activity at 100 µM in assay [1], in assay [2] and in assay [3] was greater than 10% each time.

As for `COC1=CC(=O)C=C([S@@+]([O-])c2ccc(C)cc2)C1=O` [Compound 1], in assay [2], the 50% inhibitory concentration (IC50) came out at 2.64 ± 0.62 µM.

Take `CCOC1=CC(=O)C(C)=C([S@@+]([O-])c2ccc(C)cc2)C1=O` [Compound 3]: the IC50 in assay [1] was determined as 5.41 ± 0.52 µM; in assay [2], 3.19 ± 1.02 µM; in assay [3], 11.1 ± 1.01 µM. Besides, the “IC50 CDC25B” value in assay [3] is reported as “double digit micromolar”.

`COC1=CC(=O)[C@]2(C)CC=C3CO[C@@H](c4ccoc4)CC3C2[C@H]1O` (stereo partly drawn) [Compound 7]: the remaining activity at 100 µM in assay [1], in assay [2] and in assay [3] was greater than 10% in each case.
